Earlier results in patent US4197292A, “Novel amylase inhibitors” (Taisho Pharmaceutical Co., priority 1978, dated 1980).

Tested on: β-glucosidase
Details: prior art inhibitor

- inhibitory activity to β-glucosidase (in words): has inhibitory activity
Structure (SMILES): OC[C@H]1NC(O)[C@H](O)[C@@H](O)[C@@H]1O (stereo partly shown) [Nojirimycin]
